Measured values from patent US20240108612A1, “PHARMACEUTICAL COMPOSITION FOR ENHANCING ANTICANCER EFFECT OF PROTAC, INCLUDING IU1-SERIES UBIQUITIN-SPECIFIC PROTEASE 14 INHIBITOR AS ACTIVE INGREDIENT” (DAEGU GYEONGBUK INSTITUTE OF SCIENCE AND TECHNOLOGY, priority 2021, published 2024).
Peptide text beside a SMILES is read from it. * marks the point of attachment. Cbz = O=C(OCc1ccccc1)*

Experiments:
CDK9 protein [1] = target: T1, CDK9 protein (Homo sapiens, UniProt P50750); experiment: CDK9 protein degradation by Western blotting in HeLa cells; type: cell-based; parameters: endogenous in cells; host or cells: HeLa (ATCC); conditions: for Enhancement of degradation effect of CDK9 PROTAC, comparison with PR-619: PR-619 at different concentrations, FIG. 16; for CDK9 protein level when inhibitor is treated together with PROTAC and IU1: proteasome or autophagy inhibitor added to CDK9 PROTAC and IU1, FIG. 4C
T1 sequence (P50750 whole entry): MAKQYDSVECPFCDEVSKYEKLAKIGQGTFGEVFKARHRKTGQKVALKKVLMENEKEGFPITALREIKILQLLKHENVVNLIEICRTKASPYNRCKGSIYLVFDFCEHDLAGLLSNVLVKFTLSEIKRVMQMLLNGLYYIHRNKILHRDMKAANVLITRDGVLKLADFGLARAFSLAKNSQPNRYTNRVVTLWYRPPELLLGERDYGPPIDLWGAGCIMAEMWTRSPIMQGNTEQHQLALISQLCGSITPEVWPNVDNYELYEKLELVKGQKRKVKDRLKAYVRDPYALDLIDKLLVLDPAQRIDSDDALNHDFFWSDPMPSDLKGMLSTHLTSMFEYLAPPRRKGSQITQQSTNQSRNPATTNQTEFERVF
T1 sequence (O60563 whole entry partner): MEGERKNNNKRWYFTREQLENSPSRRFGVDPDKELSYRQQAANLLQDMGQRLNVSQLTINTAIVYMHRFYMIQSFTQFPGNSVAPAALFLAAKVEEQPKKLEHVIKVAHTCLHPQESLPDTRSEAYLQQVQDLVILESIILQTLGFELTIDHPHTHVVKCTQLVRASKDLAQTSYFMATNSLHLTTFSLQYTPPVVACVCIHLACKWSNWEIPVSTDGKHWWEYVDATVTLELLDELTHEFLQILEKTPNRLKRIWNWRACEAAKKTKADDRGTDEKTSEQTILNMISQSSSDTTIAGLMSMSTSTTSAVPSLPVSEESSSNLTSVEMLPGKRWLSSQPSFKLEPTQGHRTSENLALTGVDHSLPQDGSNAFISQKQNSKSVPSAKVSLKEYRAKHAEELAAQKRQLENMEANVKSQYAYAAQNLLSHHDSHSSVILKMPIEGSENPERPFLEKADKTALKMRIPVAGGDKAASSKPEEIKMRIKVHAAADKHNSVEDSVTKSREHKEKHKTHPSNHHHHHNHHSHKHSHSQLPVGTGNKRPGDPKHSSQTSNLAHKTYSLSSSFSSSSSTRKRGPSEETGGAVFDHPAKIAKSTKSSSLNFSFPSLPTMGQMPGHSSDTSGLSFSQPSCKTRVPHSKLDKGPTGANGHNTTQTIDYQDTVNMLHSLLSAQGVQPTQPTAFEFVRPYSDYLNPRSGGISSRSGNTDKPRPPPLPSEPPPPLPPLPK
Protocol: (§1) HeLa cells (cervical cancer cells) and LNCaP cells (prostate cancer cells) that were used for the experiments of the present disclosure were obtained from the American Type Culture Collection (ATCC), and were cultured in Dulbecco's Modified Eagle's Medium (DMEM, 1×) or RPMI-1640 (1×) medium, each containing 10% FBS, 1% penicillin/streptomycin and 1% L-glutamine, in a 37° C., 5% CO2 cell incubator. For experiments with PROTAC and deubiquitinase (DUB) inhibitors such as IU1 and IU1-47, 5×10^5 (HeLa) or 1×10^6 (LNCaP) cells were seeded into each well of a 12-well plate (Corning, #3513) one day before inhibitor treatment and then cultured in an incubator. Twenty-four hours after incubation, each well was replaced with medium containing serial dilutions of the compound and incubated under the same conditions for no more than 24 hours. As for all controls, the same amount of DMSO, which is a vehicle, was used for that of the compound treated with the experimental groups.
(§2) To prepare samples for Western blotting, HeLa and LNCaP cells were washed once with ice-cold PBS (1×) and lysed using RIPA buffer (ROCKLAND, MB-030-050) supplemented with protease inhibitor cocktail (Roche), 1 mM PMSF, and 1 mM DTT, or 1% SDS lysis buffer [1% (w/v) SDS, 10 mM Tris-HCl, 1 mM EDTA, pH 8.0]. All lysates were quantified by BCA protein assay (Thermo Fisher Scientific), and then 15 to 30 μg of each lysate was run by SDS-PAGE. Afterwards, the experiment was performed in the following order: transfer to PVDF membrane, treatment with a blocking solution (5% BSA or 5% non-fat dry milk in 1× TBST), treatment with designated primary antibody, and treatment with HRP-linked secondary antibody. Between treatments, washing was performed several times with excess 1× TBST. Each membrane was image-analyzed and quantified for protein signals using ChemiDoc (iBright750, Invitrogen).
Data obtained through Western blotting were quantified using iBright analysis software, and the levels of all target proteins were normalized with GAPDH. After quantification and normalization, DC50 values of the compounds used in the experiments of the present disclosure were derived through nonlinear regression using Graph Pad Prism software.

BRD4 protein = target: T2, BRD4 protein (Homo sapiens, UniProt O60885); experiment: BRD4 protein degradation by Western blotting; type: cell-based; conditions: 50 μM IU1 with BRD4 PROTAC; 1% SDS lysis buffer or RIPA buffer; FIG. 11
T2 construct: endogenous in cells
Protocol: as §2
In order to determine whether the USP14 inhibitor of the present disclosure can enhance protein degradation capability for PROTACs other than CDK9 PROTACs, which were confirmed through experiments in Examples 2 and 4, it was confirmed whether the effect of degradation of BRD4 protein by BRD4 PROTAC was enhanced by IU1 treatment. […]

HeLa cells [2] = conditions: FIG. 8
Protocol: To measure cell viability by treatment with the compound of the present disclosure, HeLa and LNCaP cells were seeded in a 96-well plate (SPL, #33396) at 500 cells/well (HeLa) or 3000 cells/well (LNCaP). The cells were seeded and cultured in an incubator at 37° C. and 5% CO2. Twenty four hours later, the medium was replaced with compound-containing medium and incubated under the same conditions in an incubator for 48 hours. Afterwards, cell viability was measured through luminescence analysis in an Envision microplate reader (Perkin Elmer) using the ATP-lite 1 step assay kit (Perkin Elmer).
The results measured in the experiments to confirm cell viability were initially processed using Excel, and then the IC50 values were derived through nonlinear regression analysis using Prism software.

CDK9 protein [3] = target: T1, CDK9 protein; experiment: CDK9 protein degradation by Western blotting in LNCaP cells; type: cell-based; parameters: endogenous in cells
Protocol: as §1, with “Twenty-four hours after incubation, each well was replaced with medium containing serial dilutions of the compound and incubated under the same conditions for no more than 24 hours. As for all controls, the same amount of DMSO, which is a vehicle, was used for that of the compound treated with the experimental groups.” left out
To prepare samples for Western blotting, HeLa and LNCaP cells were washed once with ice-cold PBS (1×) and lysed using RIPA buffer (ROCKLAND, MB-030-050) supplemented with protease inhibitor cocktail (Roche), 1 mM PMSF, and 1 mM DTT, or 1% SDS lysis buffer [1% (w/v) SDS, 10 mM Tris-HCl, 1 mM EDTA, pH 8.0]. All lysates were quantified by BCA protein assay (Thermo Fisher Scientific), and then 15 to 30 μg of each lysate was run by SDS-PAGE. […] Each membrane was image-analyzed and quantified for protein signals using ChemiDoc (iBright750, Invitrogen).
Data obtained through Western blotting were quantified using iBright analysis software, and the levels of all target proteins were normalized with GAPDH. […]

SHP-2 protein = target: T3, SHP-2 protein (Homo sapiens, UniProt Q06124); experiment: SHP-2 protein degradation by Western blotting in HeLa cells; type: cell-based; conditions: IU1 in combination with SHP-2 PROTAC, FIGS. 12A, 12B
T3 construct: endogenous in cells; host or cells: HeLa (ATCC)
T3 sequence (Q06124 1-593): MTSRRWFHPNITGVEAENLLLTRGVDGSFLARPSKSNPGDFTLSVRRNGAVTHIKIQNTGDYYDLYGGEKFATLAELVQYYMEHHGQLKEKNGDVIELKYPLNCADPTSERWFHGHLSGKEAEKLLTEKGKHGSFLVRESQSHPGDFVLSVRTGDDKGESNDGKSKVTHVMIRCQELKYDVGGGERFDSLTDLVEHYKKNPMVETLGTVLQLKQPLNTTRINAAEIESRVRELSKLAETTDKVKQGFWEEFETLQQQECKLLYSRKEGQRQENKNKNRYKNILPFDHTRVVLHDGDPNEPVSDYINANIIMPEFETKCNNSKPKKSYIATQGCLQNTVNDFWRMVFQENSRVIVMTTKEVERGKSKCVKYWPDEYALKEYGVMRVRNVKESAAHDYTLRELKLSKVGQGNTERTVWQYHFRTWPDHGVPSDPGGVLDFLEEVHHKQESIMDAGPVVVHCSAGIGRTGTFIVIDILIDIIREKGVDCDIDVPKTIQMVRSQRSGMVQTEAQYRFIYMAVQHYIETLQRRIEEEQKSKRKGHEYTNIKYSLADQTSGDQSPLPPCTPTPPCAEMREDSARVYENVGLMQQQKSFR
Protocol: as §2
In addition, for SHP-2 PROTAC, which is another VHL-based PROTAC other than BRD4 PROTAC, it was confirmed whether the degradation effect for SHP-2 protein was enhanced under experimental conditions similar to those in the experiment in FIG. 7.

HeLa cells [4] = experiment: Cancer cell migration assay in HeLa cells; type: cell-based; conditions: CDK9 PROTAC 40 nM and IU1-47 20 μM in combination; every 12 hours; FIG. 18
Protocol: Microscopic images were taken using an inverted fluorescence microscope (Olympus) through a 10× magnification lens every 12 hours, and the width of the intercellular region was measured using ImageJ software.
To this end, HeLa cells were treated with CDK9 PROTAC (40 nM) and IU1-47 (20 μM) compounds separately or in combination, and the migration of HeLa cells was confirmed every 12 hours.

HeLa cells [5] = experiment: Cancer cell colony formation assay in HeLa cells; type: cell-based; conditions: CDK9 PROTAC 10-100 nM and IU1-47 20 μM in combination; one week; FIG. 19
Protocol: Afterwards, the medium was replaced with a compound-containing medium, and then the cells were further cultured in the incubator under the same conditions for one week. The cultured cancer cells at the end were stained with 0.25% crystal violet staining solution containing 20% methanol for 1 hour, and then washed with ultrapure distilled water and dried at room temperature for one day. Cell images were captured using a camera or iBright CL750 (Thermo Fisher), the number of colonies was analyzed using iBright analysis software, and the size of colonies was analyzed using ImageJ software.
As another example to confirm the anticancer effect by the degradation of CDK9 protein enhanced by the combined treatment of the IU1-series compound and CDK9 PROTAC, which was confirmed in Examples as described above, different concentrations of CDK9 PROTAC (10, 25 , 50, 75, 100 nM) and IU1-47 (20 μM) compounds were used separately or in combination for treatment, and one week later, the degree of colony formation of HeLa cancer cells by the effect of enhancing CDK9 PROTAC protein degradation capability by IU1-series compound, was confirmed.

## Cc1cc(C(=O)CN2CCCC2)c(C)n1-c1ccc(F)cc1 [IU1, 1-[1-(4-fluorophenyl)-2,5-dimethylpyrrol-3-yl]-2-pyrrolidin-1-ylethanone]
CDK9 protein [1]; HeLa, 75 μM of IU1 in combination
  Enhancement of protein degradation capability of CDK9 PROTAC through the DC50 value, versus vehicle control: about 5 times
CDK9 protein [1]; HeLa, CDK9 PROTAC 100 nM, IU1 50 μM, 0, 1, 3, 6, 12, 24 h, FIG. 15
  Time-dependent effect on degradation effect of CDK9 PROTAC: accelerated the degradation effect of PROTAC
CDK9 protein [1]; HeLa, CDK9 PROTAC 0.1-250 nM, especially high concentration of IU1, FIGS. 7A, 7B
  Enhancement of CDK9 protein degradation capability by CDK9 PROTAC versus vehicle control: highly enhanced the CDK9 protein degradation capability
CDK9 protein [1]; HeLa, CDK9 PROTAC 5, 10, 20, 25 nM, IU1 10-100 μM, FIGS. 6A, 6B
  Enhancement of protein degradation effect, CDK9 PROTAC concentration fixed: the protein degradation effect was enhanced in an IU1 concentration-dependent manner at all concentrations
CDK9 protein [1]; HeLa, IU1 50 μM with CDK9 PROTAC 1, 10, 25, 50, 100 nM, FIG. 4A
  CDK9 protein degradation effect of CDK9 PROTAC on combined treatment: substantially increased
CDK9 protein [1]; HeLa, IU1 10, 25, 75, 100 μM, CDK9 PROTAC 1-100 nM, FIGS. 5A, 5B
  Enhancement of CDK9 degradation effect by CDK9 PROTAC, IU1 concentration fixed: enhanced the CDK9 degradation effect by CDK9 PROTAC in a PROTAC concentration-dependent manner at all concentrations except for the IU1 concentration at 10 μM
CDK9 protein [1]; HeLa, maximum IU1 treatment concentration 50 μM, FIG. 4B
  CDK9 protein degradation on treatment with IU1 alone: degradation of CDK9 protein did not occur
BRD4 protein
  Enhancement of BRD4 protein degradation effect of BRD4 PROTAC: concentration-dependent enhancement of the BRD4 protein degradation effect
HeLa cells [2]
  Anticancer effect of CDK9 PROTAC (IC50, cell growth inhibition) with IU1 in combination: significantly increased
CDK9 protein [3]; IU1 10, 25, 75, 100 μM (all concentrations), CDK9 PROTAC 1-50 nM, FIGS. 10A, 10B
  Enhancement of CDK9 degradation effect by CDK9 PROTAC, IU1 concentration fixed: enhanced the CDK9 degradation effect by CDK9 PROTAC in a PROTAC concentration-dependent manner
CDK9 protein [3]; IU1 and CDK9 PROTAC in combination, FIG. 9
  Degradation effect for CDK9 protein, combination versus CDK9 PROTAC alone: significantly increased
SHP-2 protein
  Enhancement of SHP-2 protein degradation by SHP-2 PROTAC: SHP-2 PROTAC concentration-dependent enhancement of SHP-2 protein degradation

## Cc1cc(C(=O)CN2CCCCC2)c(C)n1-c1ccc(Cl)cc1 [IU1-47, 1-[1-(4-chlorophenyl)-2,5-dimethyl-1H-pyrrol-3-yl]-2-(1-piperidinyl)ethanone]
CDK9 protein [1]; HeLa, 20 μM IU1-47 in combination with CDK9 PROTAC, FIG. 13C
  Enhancement of protein degradation of PROTAC from DC50 values, versus CDK9 PROTAC alone: about 6 times
CDK9 protein [1]; HeLa, CDK9 PROTAC 5, 10, 20 nM, varying IU1-47, FIG. 14
  Enhancement of degradation of PROTAC, CDK9 PROTAC concentration fixed: significantly enhanced the degradation of PROTAC in a concentration-dependent manner
CDK9 protein [1]; HeLa, FIG. 14
  CDK9 degradation on treatment with IU1-47 alone: did not result in any degradation of CDK9
CDK9 protein [1]; HeLa, IU1-47 10 μM, 20 µM, 30 μM, CDK9 PROTAC 0.1-250 nM, FIGS. 13A, 13B
  Enhancement of protein degradation capability of CDK9 PROTAC versus vehicle: significantly enhanced at all concentrations of IU1-47
CDK9 protein [1]; HeLa, IU1-47 20 μM, FIG. 17
  Enhancement of degradation effect of CDK9 PROTAC, comparison with P50429: significantly enhanced the degradation effect of PROTAC
CDK9 protein [1]; HeLa
  Enhancement of degradation effect of CDK9 PROTAC, comparison with PR-619: significantly enhanced the degradation effect of PROTAC
CDK9 protein [1]; in combination with PROTAC, see Example 6
  Targeted protein degradation capability of PROTAC, IU1-47 compared with IU1: more increased compared to when IU1 was treated in combination with PROTAC
HeLa cells [4]
  Migration or wound healing effect of HeLa cells, combination versus either alone: significantly inhibited
HeLa cells [5]
  Colony formation of HeLa cancer cells, combination versus either alone: significantly inhibited

## CC(C)C[C@@H](C=O)NC(=O)[C@H](CC(C)C)NC(=O)[C@H](CC(C)C)NC(=O)OCc1ccccc1 [MG132, reference compound] (Cbz-Leu-Leu-Leu-aldehyde)
CDK9 protein [1]
  CDK9 protein level when inhibitor is treated together with PROTAC and IU1: the level of CDK9 protein was recovered similar to the control group

## CS(=O)(=O)c1ccc(NC(=O)c2cc(C#N)c(Sc3c(Cl)cncc3Cl)s2)cc1 [P50429, reference compound]
CDK9 protein [1]; HeLa, P50429 1 μM and 10 μM with CDK9 PROTAC, FIG. 17
  Enhancement of degradation effect of CDK9 PROTAC: did not enhance the degradation effect of PROTAC

## N#CSc1cc(SC#N)c(N)nc1N [PR-619, reference compound]
CDK9 protein [1]; HeLa
  Enhancement of degradation effect of CDK9 PROTAC, comparison with PR-619: did not show the effect of enhancing the protein degradation of PROTAC at all treatment concentrations

## CO/C1=C\C(C)=C\[C@@H](C)[C@@H](O)[C@@H](C)C/C(C)=C/C=C/[C@H](OC)[C@@H]([C@@H](C)[C@@H](O)[C@H](C)[C@@]2(O)C[C@@H](O)[C@H](C)[C@@H](C(C)C)O2)OC1=O [bafilomycin A1, reference compound]
CDK9 protein [1]
  CDK9 protein level when inhibitor is treated together with PROTAC and IU1: the degradation of CDK9 protein by the treatment with PROTAC and IU1 was still observed
